Structures are written as SMILES.

The target of one test is T1, human NHE-3 protein (expressed in the LAP1 cell line) (Homo sapiens, UniProt P48764).
T1 construct: expressed in transfected cells; host or cells: LAP1 cell line
T1 sequence (P48764 26-834): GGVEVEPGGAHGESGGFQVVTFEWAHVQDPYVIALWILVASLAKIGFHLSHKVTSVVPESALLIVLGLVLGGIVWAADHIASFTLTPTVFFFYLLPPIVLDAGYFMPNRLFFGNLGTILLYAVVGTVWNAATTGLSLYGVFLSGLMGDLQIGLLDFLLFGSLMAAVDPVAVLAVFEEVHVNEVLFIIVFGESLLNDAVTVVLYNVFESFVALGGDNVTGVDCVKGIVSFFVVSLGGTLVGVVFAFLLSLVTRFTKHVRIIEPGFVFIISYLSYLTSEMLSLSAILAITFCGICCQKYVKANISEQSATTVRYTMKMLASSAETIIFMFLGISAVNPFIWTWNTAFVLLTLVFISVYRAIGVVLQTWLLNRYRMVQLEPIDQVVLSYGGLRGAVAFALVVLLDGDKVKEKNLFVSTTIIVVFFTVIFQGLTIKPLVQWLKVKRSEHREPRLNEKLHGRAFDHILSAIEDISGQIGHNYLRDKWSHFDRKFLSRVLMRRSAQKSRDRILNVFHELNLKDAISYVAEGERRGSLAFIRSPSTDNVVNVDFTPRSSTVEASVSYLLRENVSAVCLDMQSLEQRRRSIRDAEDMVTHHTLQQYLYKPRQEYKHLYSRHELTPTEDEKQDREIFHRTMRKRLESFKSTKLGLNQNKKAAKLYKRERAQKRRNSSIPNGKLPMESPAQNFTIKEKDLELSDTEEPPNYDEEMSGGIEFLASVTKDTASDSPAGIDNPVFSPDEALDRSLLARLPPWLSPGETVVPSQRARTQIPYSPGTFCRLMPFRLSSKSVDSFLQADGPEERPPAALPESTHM
The experiment in a line: Inhibition of sodium/proton exchanger subtype 3: recovery of intracellular pH after acidification (BCECF fluorescence). It is filed as cell-based. The settings on record: at 30 μM, pHi recovery as percentage of the maximum recovery. The protocol: Biological testing of the novel compounds was accomplished by measuring inhibition of the sodium/proton exchanger subtype 3.
The remaining activity of the human NHE-3 protein (expressed in the LAP1 cell line) was determined by measuring the recovery in the intracellular pH (pHi) after an acidification, which starts when the NHE is capable of functioning, even under bicarbonate-free conditions. For this purpose, the pHi was determined using the pH-sensitive fluorescent dye BCECF (Calbiochem, the precursor BCECF-AM is employed). The cells were initially loaded with BCECF. […] The intracellular acidification was induced by addition of 975 μl of an NH4Cl-free buffer (see below) to 25 μl aliquots of the cells incubated in NH4Cl buffer. The subsequent rate of pH recovery was recorded for 3 minutes. To calculate the inhibitory power of the substances tested, the cells were initially investigated in buffers in which complete or absolutely no pH recovery took place. […] Test solutions of the substances of interest were made up in the Na^+-containing buffer. Recovery of the intracellular pH at the tested concentration of a substance was expressed as a percentage of the maximum recovery.
For the compound `CC(=O)c1c(C)nc2ccccc2c1NCc1ccc(CCC2(O)CCC3(C)C(CC(O)C4C3CC(O)C3(C)C(C(C)CCC(=O)O)CCC43)C2)cc1` (stereo not drawn) [Example 2, 2-Methyl-3-acetyl-4-{4-[1-(3α,7α, 12α-trihydroxy-10β,13β-dimethyl-17β-(3-carboxy-1-methylpropyl)hexadecahydrocyclopenta[a]phenanthren-3-yl)eth-2-yl]benzylamino}quinoline], the “remaining activity of hNHE3” value stood at 33%.

For the compound `CC(=O)c1c(C)nc2ccccc2c1NCc1ccccc1CCC1(O)CCC2(C)C(CC(O)C3C2CC(O)C2(C)C(C(C)CCC(=O)O)CCC32)C1` (stereo not drawn) [Example 18, 2-Methyl-3-acetyl-4-{2-[1-(3α,7α,12α-trihydroxy-10β,13β-dimethyl-17β(3-carboxy-1-methylpropyl)hexadecahydrocyclopenta[a]phenanthren-3-yl)eth-2-yl]benzylamino}quinoline], the “remaining activity of hNHE3” value was found to be 36%.

Staying with this test, now noted: pHi recovery as percentage of the maximum recovery, read-out: remaining activity of hNHE3.
Regarding `CC(=O)c1c(C)nc2ccccc2c1NCc1ccc(C#CC2(O)CCC3(C)C(CC(O)C4C3CC(O)C3(C)C4CC[C@@H]3C(C)CCC(=O)O)C2)cc1` (stereo partly drawn) [Example 1, 2-Methyl-3-acetyl-4-{4-[1-(3α,7α, 12α-trihydroxy-10β, 13β-dimethyl-17β-(carboxy-1-methylpropyl)hexadecahydrocyclopenta[a]phenanthren-3-yl)ethyn-2-yl]-benzylamino}quinoline], the remaining activity at 30 µM worked out at 26%.

As for `COC(=O)CC[C@@H](C)[C@H]1CCC2C3C(C[C@H](O)[C@@]21C)[C@@]1(C)CC[C@H](OCCNC(=O)c2c(C)nc4ccccc4c2NCc2ccccc2)CC1C[C@H]3O` (stereo partly drawn) [Example 3, 2-Methyl-4-aminobenzyl-N-{2-[7α, 12α-dihydroxy-10β,13β-dimethyl-17β-(3-methoxycarbonyl-1-methylpropyl)hexadecahydrocyclopenta[a]phen-anthren-3β-yloxy]ethyl}quinoline-3-carboxamide], the remaining activity at 30 µM came to 22%.

Take `COC(=O)c1c(C)nc2ccccc2c1NCc1ccc(C#CC2(O)CCC3(C)C(CC(O)C4C3CC(O)C3(C)C4CC[C@@H]3C(C)CCC(=O)O)C2)cc1` (stereo partly drawn) [Example 6, Methyl 2-methyl-4-{4-[1-(3α,7α,12α-trihydroxy-10β, 13β-dimethyl-17β-(3carboxy-1-methylpropyl)hexadecahydrocyclopenta[a]phenanthren-3-yl)ethyn-2-yl]benzylamino}quinoline-3-carboxylate]: the remaining activity at 30 µM turned out to be 39%.

As for `CC(=O)c1c(C)nc2ccccc2c1NCc1cccc(CC[C@@]2(O)CC[C@@]3(C)C(C[C@@H](O)C4C3C[C@H](O)[C@@]3(C)C4CC[C@@H]3[C@H](C)CCC(=O)NCC(=O)O)C2)c1` (stereo partly drawn) [Example 15, 2-Methyl-3-acetyl-4-{3-[1-(3α,7α,12α-trihydroxy-10β,13β-dimethyl-17β-(3-carboxymethylcarbamoyl-1-methylpropyl)hexadecahydrocyclopenta[a]phenanthren-3-yl)eth-2-yl]benzylamino}quinoline], the remaining activity at 30 µM came to 65%.

For the compound `CC(=O)c1c(C)nc2ccccc2c1NCc1cccc(CC[C@@]2(O)CC[C@@]3(C)C(C[C@@H](O)C4C3C[C@H](O)[C@@]3(C)C4CC[C@@H]3[C@H](C)CCC(=O)NCCS(=O)(=O)O)C2)c1` (stereo partly drawn) [Example 16, 2-Methyl-3-acetyl-4-{3-[1-(3α,7α,12α-trihydroxy-10β,13β-dimethyl-17β(3-(2-sulfoethylcarbamoyl)-1-methylpropyl)hexadecahydrocyclopenta[a]phenanthren-3-yl)eth-2-yl]benzylamino}quinoline], the remaining activity at 30 µM came to 27%.

`CC(=O)c1c(C)nc2ccccc2c1NCc1ccccc1C#CC1(O)CC[C@@]2(C)C(CC(O)C3C2CC(O)[C@@]2(C)C3CC[C@@H]2[C@H](C)CCC(=O)O)C1` (stereo partly drawn) [Example 17, 2-Methyl-3-acetyl-4-{2-[1-(3α,7α,12α-trihydroxy-10β,13β-dimethyl-17β-(3-carboxy-1-methylpropyl)hexadecahydrocyclopenta[a]phenanthren-3-yl)ethyn-2-yl]benzylamino}quinoline]: the remaining activity at 30 µM worked out at 36%.

Take `CC(=O)c1c(C)nc2ccccc2c1NCc1ccc(C#CC2(O)CCC3(C)C(CC(O)C4C3CC(O)C3(C)C4CC[C@@H]3C(C)CCC(=O)O)C2)c(F)c1` (stereo partly drawn) [Example 23, 2-Methyl-3-acetyl-4-{4-[1-(3α,7α,12α-trihydroxy-10β,13β-dimethyl-17β-(3-carboxy-1-methylpropyl)hexadecahydrocyclopenta[a]phenanthren-3-yl)ethyn-2-yl]-3-fluorobenzylamino}quinoline]: the remaining activity at 30 µM was 16%.

For the compound `CC(=O)c1c(C)nc2ccccc2c1NCc1ccc(CCC2(O)CCC3(C)C(CC(O)C4C3CC(O)C3(C)C4CC[C@@H]3C(C)CCC(=O)O)C2)c(F)c1` (stereo partly drawn) [Example 24, 2-Methyl-3-acetyl-4-{4-[1-(3α,7α,12α-trihydroxy-10β,13β-dimehtyl-17β-(3-carboxy-1-methylpropyl)hexadecahydrocyclopenta[a]phenanthren-3-yl)eth-2-yl]-3-fluorobenzylamino}quinoline], the remaining activity at 30 µM stood at 29%.

Regarding `CC(=O)c1c(C)nc2ccccc2c1NCc1ccc(C#CC2(O)CCC3(C)C(CC(O)C4C3CC(O)C3(C)C4CC[C@@H]3C(C)CCC(=O)O)C2)c(Cl)c1` (stereo partly drawn) [Example 25, 2-Methyl-3-acetyl-4-{4-[1-(3α,7α,12α-trihydroxy-10β,13β-dimethyl-17β-(3-carboxy-1-methylpropyl)hexadecahydrocyclopenta[a]phenanthren-3-yl)ethyn-2-yl]-3-chlorobenzylamino}quinoline], the remaining activity at 30 µM amounted to 18%.

For `CC(=O)c1c(C)nc2ccccc2c1NCc1ccc(C#CC2(O)CCC3(C)C(CC(O)C4C3CC(O)C3(C)C4CC[C@@H]3C(C)CCC(=O)O)C2)cc1F` (stereo partly drawn) [Example 26], the remaining activity at 30 µM was 52%.

With `CC(=O)c1c(C)nc2ccccc2c1NCc1ccc(CCC2(O)CCC3(C)C(CC(O)C4C3CC(O)C3(C)C4CC[C@@H]3C(C)CCC(=O)O)C2)cc1F` (stereo partly drawn) [Example 27, 2-Methyl-3-acetyl-4-{4-[1-(3α,7α,12α-trihydroxy-10β,13β-dimethyl-17β-(3-carboxy-1-methylpropyl)hexadecahydrocyclopenta[a]phenanthren-3-yl)eth-2-yl]-2-fluorobenzylamino}quinoline], the remaining activity at 30 µM is 54%.

Turning to `CC(=O)c1c(C)nc2ccccc2c1NCc1ccc(C#CC2(O)CCC3(C)C(CC(O)C4C3CC(O)C3(C)C4CC[C@@H]3C(C)CCC(=O)O)C2)cc1Cl` (stereo partly drawn) [Example 28, 2-Methyl-3-acetyl-4-{4-[1-(3α,7α,12α-trihydroxy-10β,13β-dimethyl-17β-(3-carboxy-1-methylpropyl)hexadecahydrocyclopenta[a]phenanthren-3-yl)ethyn-2-yl]-2-chlorobenzylamino}quinoline], the remaining activity at 30 µM amounted to 69%.

As to `CC(=O)c1c(C)nc2ccccc2c1NCc1ccc(CCC2(O)CCC3(C)C(CC(O)C4C3CC(O)C3(C)C4CC[C@@H]3C(C)CCC(=O)O)C2)cc1Cl` (stereo partly drawn) [Example 29, 2-Methyl-3-acetyl-4-{4-[1-(3α,7α,12α-trihydroxy-10β,13β-dimethyl-17β(3-carboxy-1-methylpropyl)hexadecahydrocyclopenta[a]phenanthren-3-yl)eth-2-yl]-2-chlorobenzylamino}quinoline], the remaining activity at 30 µM turned out to be 61%.

For the origin of these results see US6339077B1, “Substituted 4-benzylaminoquinolines and their hetero analogs, process for their preparation, pharmaceuticals containing these compounds and use thereof” (Aventis Pharma Deutschland GmbH, priority 1999, dated 2002).
